Consider two compounds from US8298993B2, “Herbicidal composition and method of use thereof” (Syngenta Crop Protection LLC, priority 2006, dated 2012).

Experiment [1] concerns large crabgrass (Digitaria sanguinalis). The experiment in a line: Glasshouse trial, control of large crabgrass, post-emergence application. In kind it is in vivo. As for the experimental part: A glasshouse trial was carried out. Large crabgrass seeds were sown into standard glasshouse potting mix (1:1 v/v Promix:Vero sand soil) contained in 10 cm square plastic pots. Treatments were replicated three times. Mesotrione (in the form Callisto® 480SE) was applied post-emergence to large crabgrass (Digitaria sanguinalis) at either 12 g ai/ha or 24 g ai/ha with or without s-metolachlor (in the form Dual Magnum®). When used, s-metolachlor was applied at a rate of 500 g ai/ha or 1000 g ai/ha. The adjuvant system was X-77 at 0.1% v/v in deionised water. 200 liters of herbicide/adjuvant system was used per hectare. General weed control was evaluated at 7 and 14 days after treatment (DAT). It is noted that all herbicides were applied at reduced field rates because herbicide effects are magnified in a glasshouse environment. Rates were chosen to give a 50 to 70% level of control with herbicides applied alone as this allows for detection of any synergistic effect when tank mixtures are used. […] The results were evaluated using the Colby formula. The expected result for (A+B) is (A+B)−(A×B/100) where A and B are the ‘observed’ results for A and B on their own.

In experiment [2] the test system is white clover (Trifolium repens). The experiment in a line: Glasshouse trial, control of white clover, post-emergence application. In kind it is in vivo. Conditions: 16 DAT. As for the experimental part: A glasshouse trial was carried out. White clover seeds were sown into standard glasshouse potting mix (1:1 v/v Promix:Vero sand soil) contained in 10 cm square plastic pots. Treatments were replicated three times. Mesotrione (in the form Callisto®480SE) was applied post-emergence to white clover (Trifolium repens) at either 50 g ai/ha or 100 g ai/ha with or without s-metolachlor (in the form Dual Magnum®). […] The adjuvant system was X-77 at 0.1% v/v in deionised water. 200 liters of herbicide/adjuvant system was used per hectare. General weed control was evaluated at 10 and 16 days after treatment (DAT). It is noted that all herbicides were applied at reduced field rates because herbicide effects are magnified in a glasshouse environment. Rates were chosen to give a 50 to 70% level of control with herbicides applied alone as this allows for detection of any synergistic effect when tank mixtures are used. […] The results were evaluated using the Colby formula. The expected result for (A+B) is (A+B)−(A×B/100) where A and B are the ‘observed’ results for A and B on their own.

The test system of a further experiment is large crabgrass. The experiment in a line: Control of large crabgrass, pre-emergent application of the herbicides. The conditions noted are these: s-metolachlor 5 g ai/ha in the absence of mesotrione. The experiment is classed as in vivo, Digitaria sanguinalis.

Turning to `CS(=O)(=O)c1ccc(C(=O)C2C(=O)CCCC2=O)c([N+](=O)[O-])c1` [mesotrione, 2-(2′-nitro-4′-methylsulphonylbenzoyl)-1,3-cyclohexanedione], in experiment [1] (mesotrione alone, post-emergence, 7 DAT), the “control of large crabgrass, herbicide alone” value is given as “relatively high”. Also, in experiment [2] (mesotrione alone at the lower rate (50 g ai/ha)), the “control of white clover, herbicide alone” value amounted to 32%.
As for s-metolachlor, the “control of large crabgrass, herbicide alone” value is on record as “no control” in experiment [1] (first experiment, s-metolachlor on its own (500 or 1000 g ai/ha), post-emergence, 14 DAT); 7% in experiment [1] (repeat experiment, s-metolachlor 500 g ai/ha in the absence of mesotrione, 14DAT); 7% in experiment [1] (repeat experiment, s-metolachlor 1000 g ai/ha in the absence of mesotrione, 14DAT); 95% in the experiment with large crabgrass. Further, the “control of white clover, herbicide alone” value in experiment [2] (s-metolachlor on its own at 500 g ai/ha) amounted to 3%.
